≈ marks a conversion by molar mass, not a printed value. Entries after “also recorded” stand apart in the source; their conditions may differ. Like-named read-outs stand apart in the source and are kept apart here.
How the values were obtained:
[1] = system: Staphylococcus aureus ATCC 29213; assay: Broth microdilution MIC assay, quality control strain (Example 2); assay type: cell-based; details: ATCC29213, S. aureus ATCC 29213 (QC), CAMHB
Description: (§1) Following incubation, colonies were harvested from these plates and cell suspensions prepared and frozen at −80° C. with a cryoprotectant. Prior to testing, N. gonorrhoeae isolates were streaked onto Chocolate Agar [Becton Dickinson, (BD), Sparks, Md.; Lot No. 922807]; Staphylococcus aureus ATCC 29213 tested for quality control (QC) purposes was streaked onto Trypticase Soy Agar with 5% Sheep Blood (TSA II; BD; Lot No. 9219399).
Cation-adjusted Mueller Hinton broth (CAMHB; BD; Lot No. 9019592) was used for MIC testing of S. aureus ATCC 29213 for QC purposes.
(§2) MIC values were determined using a broth microdilution procedure described by CLSI (1, 2). Automated liquid handlers (Multidrop 384, Labsystems, Helsinki, Finland; Biomek 2000 and Biomek FX, Beckman Coulter, Fullerton Calif.) were used to conduct serial dilutions and liquid transfers.
(§3) To prepare the drug mother plates, which would provide the serial drug dilutions for the replicate daughter plates, the wells of columns 2 through 12 of standard 96-well microdilution plates (Costar 3795) were filled with 150 μl of the designated diluent for each row of drug. The test articles and comparator compounds (300 μl at 100× the highest concentration to be tested) were dispensed into the appropriate wells in column 1. The Biomek 2000 was then used to make 2-fold serial dilutions in the mother plates from column 1 through column 11. The wells of column 12 contained no drug and served as the organism growth control wells for the assay.
(§4) The daughter plates were loaded with 190 μL per well of the appropriate test medium for the tested organism using the Multidrop 384. The daughter plates were completed on the Biomek FX instrument which transferred 2 μL of drug solution from each well of a mother plate to the corresponding well of each daughter plate in a single step. Daughter plates for the testing of anaerobes were allowed to pre-reduce in the Bactron II anaerobe chamber for 2 hr prior to inoculation.
A standardized inoculum of each test organism was prepared per CLSI methods (1, 2). The inoculum for each organism was dispensed into sterile reservoirs divided by length (Beckman Coulter), and the Biomek 2000 was used to inoculate the plates. Daughter plates were placed on the Biomek 2000 work surface in reverse orientation so that inoculation took place from low to high drug concentration. Anaerobic organisms were inoculated by hand in the Bactron II anaerobic chamber. Bacterial plates were then inoculated with 10 μL of the inoculum resulting in a final cell density of approximately 5×10^5 CFU/mL.
Plates were stacked 3 to 4 high, covered with a lid on the top plate and placed in plastic bags. […] The MIC was read and recorded as the lowest concentration of drug that inhibited visible growth of the organism.

Neisseria gonorrhoeae = assay: Broth microdilution MIC assay, 30 isolates (Example 2); assay type: cell-based
Description: In this study, the in vitro spectrum of activity of CBD was determined against 30 isolates comprised of reference strains from the WHO, isolates from the CDC antibiotic resistance bank, and clinical isolates from the Micromyx (MMX) repository, with different resistance phenotypes. Assays were conducted following guidelines recommended by the Clinical and Laboratory Standards Institute (CLSI; 1, 2) with the exception that broth microdilution was used instead of agar dilution.
Stock solutions of all compounds were prepared on the day of testing using solvents recommended by CLSI. Stock solutions of all compounds were made at 101× the final testing concentration. CBD was supplied by Cerilliant (Round Rock, Tex.) as a 1 mg/mL methanolic solution which was stored at −20° C. after receipt. Prior to testing, using a 5 mL aliquot of the CBD methanolic solution, the methanol was dried off and the residual CBD was resuspended in 774 μL DMSO resulting in a 6.464 mg/mL solution.
The test organisms evaluated in this study consisted of Neisseria gonorrhoeae isolates from the Micromyx repository and reference isolates from the American Type Culture Collection (ATCC; Manassas, Va.), Centers for Disease Control and Prevention (CDC; Atlanta, Ga.) or the National Collection of Type Cultures (NCTC; Public Health England, Salisbury, UK). Upon initial receipt at Micromyx, the organisms were sub-cultured onto an appropriate agar medium.
as §1
For N. gonorrhoeae, a modified medium described by the ATCC as capable of supporting the growth of N. gonorrhoeae (Neisseria peptone medium) was used for the broth microdilution MIC assay. This medium contained 15 g Oxoid Special Peptone (Lot No. 1280296; Oxoid, Hampshire, UK), 1 g corn starch (Lot No. AD-13344-14; Ward's Science; Rochester, N.Y.), 5 g NaCl (Lot No. 57897; VWR, Radnor, Pa.), 4 g K2HPO4 (Lot No. SLBT7061; Sigma), and 1 g KH2PO4 (Lot No. SLBC1921V; Sigma). After autoclaving, the medium was centrifuged at 5,000×g for 10 min, the supernatant was passed through a 0.45 μm filter, and IsoVitaleX supplement (Lot No. 8323954; BD) was added at 1% (v/v).
as §2, §3, §4

[2] = 30 isolates of N. gonorrhoeae, broth microdilution, MIC distribution
[3] = 30 isolates, broth dilution assay, MIC distribution (Table 6)

C=C(C)C1CCC(C)=CC1c1c(O)cc(CCCCC)cc1O (stereo not drawn) [CBD, 2-[3-methyl-6-(1-methylethenyl)-2-cyclohexen-1-yl]-5-pentyl-1,3-benzenediol]
MIC [1]: 0.5 µg/mL (≈ 1.59 µM) | Effect of the resistance phenotype of the isolate on activity (Neisseria gonorrhoeae; 30 isolates of N. gonorrhoeae with different resistance phenotypes): not affected by the resistance phenotype of the isolate; also recorded: independent of the resistance phenotype of the tested isolate | Number of isolates at MIC value 0.015 μg/mL (Neisseria gonorrhoeae; [2]): 0 | Number of isolates at MIC value 0.03 μg/mL (Neisseria gonorrhoeae; [2]): 0 | Number of isolates at MIC value 0.06 μg/mL (Neisseria gonorrhoeae; [2]): 0 | Number of isolates at MIC value 0.5 μg/mL (Neisseria gonorrhoeae; [2]): 3 | Number of isolates at MIC value 1 μg/mL (Neisseria gonorrhoeae; [2]): 10 | Number of isolates at MIC value 2 μg/mL (Neisseria gonorrhoeae; [2]): 15 | Number of isolates at MIC value 4 μg/mL (Neisseria gonorrhoeae; [2]): 0 | Number of isolates at MIC value 8 μg/mL (Neisseria gonorrhoeae; [2]): 1 | Number of isolates at MIC value >8 μg/mL (Neisseria gonorrhoeae; [2]): 1 | Number of isolates at MIC value >32 μg/mL (Neisseria gonorrhoeae; [2]): 1 | Number of isolates at MIC value […] (Neisseria gonorrhoeae; [2]): 0 | Number of isolates at MIC 0.08 μg mL^−1 (Neisseria gonorrhoeae; [3]): 0 | Number of isolates at MIC ≤0.004 μg mL^−1 (Neisseria gonorrhoeae; [3]): 0 | MIC (Neisseria gonorrhoeae; Neisseria gonorrhoeae, ATCC49226, N. gonorrhoeae ATCC 49226 (QC), broth microdilution, read-out: MIC): 2 µg/mL (≈ 6.36 µM) | MIC (Neisseria gonorrhoeae; Neisseria gonorrhoeae, N. gonorrhoeae CDC 0165 (CIP-R, AZI MIC 1), broth microdilution, read-out: MIC): 8 µg/mL (≈ 25.4 µM) | MIC (Neisseria gonorrhoeae; Neisseria gonorrhoeae, N. gonorrhoeae CDC 0166 (CIP-R, AZI MIC 1), broth microdilution, read-out: MIC): 2 µg/mL (≈ 6.36 µM) | MIC (Neisseria gonorrhoeae; Neisseria gonorrhoeae, N. gonorrhoeae CDC 0167 (CIP-S, AZI MIC 8), broth microdilution, read-out: MIC): 1 µg/mL (≈ 3.18 µM) | MIC (Neisseria gonorrhoeae; Neisseria gonorrhoeae, N. gonorrhoeae CDC 0172 (CIP-R, AZI MIC 0.5), broth microdilution, read-out: MIC): 2 µg/mL (≈ 6.36 µM) | MIC (Neisseria gonorrhoeae; Neisseria gonorrhoeae, N. gonorrhoeae CDC 0175 (CIP-S, AZI MIC 16), broth microdilution, read-out: MIC): 2 µg/mL (≈ 6.36 µM) | MIC (Neisseria gonorrhoeae; Neisseria gonorrhoeae, N. gonorrhoeae CDC 0177 (CIP-S, AZI MIC 2), broth microdilution, read-out: MIC): 2 µg/mL (≈ 6.36 µM) | MIC (Neisseria gonorrhoeae; Neisseria gonorrhoeae, N. gonorrhoeae CDC 0181 (CIP-S, AZI MIC 256), broth microdilution, read-out: MIC): 1 µg/mL (≈ 3.18 µM) | MIC (Neisseria gonorrhoeae; Neisseria gonorrhoeae, N. gonorrhoeae CDC 0194 (CRO-NS, CIP-S, AZI MIC 0.5), broth microdilution, read-out: MIC): 2 µg/mL (≈ 6.36 µM) | MIC (Neisseria gonorrhoeae; Neisseria gonorrhoeae, N. gonorrhoeae MMX 6921 (CIP-R), broth microdilution, read-out: MIC): 1 µg/mL (≈ 3.18 µM) | MIC (Neisseria gonorrhoeae; Neisseria gonorrhoeae, N. gonorrhoeae MMX 6938 (CIP-S), broth microdilution, read-out: MIC): 2 µg/mL (≈ 6.36 µM) | MIC (Neisseria gonorrhoeae; Neisseria gonorrhoeae, N. gonorrhoeae MMX 10409 (CIP-R), broth microdilution, read-out: MIC): 2 µg/mL (≈ 6.36 µM) | MIC (Neisseria gonorrhoeae; Neisseria gonorrhoeae, N. gonorrhoeae MMX 10410 (CIP-S), broth microdilution, read-out: MIC): 2 µg/mL (≈ 6.36 µM) | MIC (Neisseria gonorrhoeae; Neisseria gonorrhoeae, N. gonorrhoeae MMX 10447 (CIP-S), broth microdilution, read-out: MIC): 1 µg/mL (≈ 3.18 µM) | MIC (Neisseria gonorrhoeae; Neisseria gonorrhoeae, N. gonorrhoeae MMX 10450 (CIP-S), broth microdilution, read-out: MIC): 0.5 µg/mL (≈ 1.59 µM) | MIC (Neisseria gonorrhoeae; Neisseria gonorrhoeae, N. gonorrhoeae MMX 10452 (CIP-R), broth microdilution, read-out: MIC): 2 µg/mL (≈ 6.36 µM) | MIC (Neisseria gonorrhoeae; Neisseria gonorrhoeae, N. gonorrhoeae MMX 10454 (CIP-R), broth microdilution, read-out: MIC): 1 µg/mL (≈ 3.18 µM) | MIC (Neisseria gonorrhoeae; Neisseria gonorrhoeae, NCTC13477, N. gonorrhoeae NCTC 13477 (WHO F; CIP-S, AZI MIC […]), broth microdilution, read-out: MIC): 0.5 µg/mL (≈ 1.59 µM) | MIC (Neisseria gonorrhoeae; Neisseria gonorrhoeae, NCTC13478, N. gonorrhoeae NCTC 13478 (WHO G; CIP-I, AZI MIC […]), broth microdilution, read-out: MIC): 2 µg/mL (≈ 6.36 µM) | MIC (Neisseria gonorrhoeae; Neisseria gonorrhoeae, NCTC13479, N. gonorrhoeae NCTC 13479 (WHO K; CIP-R, AZI MIC […]), broth microdilution, read-out: MIC): 2 µg/mL (≈ 6.36 µM) | MIC (Neisseria gonorrhoeae; Neisseria gonorrhoeae, NCTC13480, N. gonorrhoeae NCTC 13480 (WHO L; CIP-R, AZI MIC 0.5), broth microdilution, read-out: MIC): 0.5 µg/mL (≈ 1.59 µM) | MIC (Neisseria gonorrhoeae; Neisseria gonorrhoeae, NCTC13481, N. gonorrhoeae NCTC 13481 (WHO M; CIP-R, AZI MIC […]), broth microdilution, read-out: MIC): 1 µg/mL (≈ 3.18 µM) | MIC (Neisseria gonorrhoeae; Neisseria gonorrhoeae, NCTC13482, N. gonorrhoeae NCTC 13482 (WHO N; CIP-R, AZI MIC […]), broth microdilution, read-out: MIC): 2 µg/mL (≈ 6.36 µM) | MIC (Neisseria gonorrhoeae; Neisseria gonorrhoeae, NCTC13483, N. gonorrhoeae NCTC 13483 (WHO O; CIP-S, AZI MIC […]), broth microdilution, read-out: MIC): 2 µg/mL (≈ 6.36 µM) | MIC (Neisseria gonorrhoeae; Neisseria gonorrhoeae, NCTC13484, N. gonorrhoeae NCTC 13484 (WHO P; CIP-S, AZI MIC 4), broth microdilution, read-out: MIC): > 32 µg/mL | MIC (Neisseria gonorrhoeae; Neisseria gonorrhoeae, NCTC13817, N. gonorrhoeae NCTC 13817 (WHO U; CIP-S, AZI MIC 4), broth microdilution, read-out: MIC): 1 µg/mL (≈ 3.18 µM) | MIC (Neisseria gonorrhoeae; Neisseria gonorrhoeae, NCTC13818, N. gonorrhoeae NCTC 13818 (WHO V; CIP-R, AZI MIC >256), broth microdilution, read-out: MIC): 1 µg/mL (≈ 3.18 µM) | MIC (Neisseria gonorrhoeae; Neisseria gonorrhoeae, NCTC13819, N. gonorrhoeae NCTC 13819 (WHO W; CIP-R, AZI MIC 0.5), broth microdilution, read-out: MIC): 1 µg/mL (≈ 3.18 µM) | MIC (Neisseria gonorrhoeae; Neisseria gonorrhoeae, NCTC13820, N. gonorrhoeae NCTC 13820 (WHO X; CRO-NS, CIP-R, AZI MIC 0.5), broth microdilution, read-out: MIC): 2 µg/mL (≈ 6.36 µM) | MIC (Neisseria gonorrhoeae; Neisseria gonorrhoeae, NCTC13821, N. gonorrhoeae NCTC 13821 (WHO Y; CIP-R, AZI MIC 1), broth microdilution, read-out: MIC): 1 µg/mL (≈ 3.18 µM) | MIC50 (Neisseria gonorrhoeae; Neisseria gonorrhoeae, 30 isolates of N. gonorrhoeae, broth microdilution, read-out: MIC50): 2 µg/mL (≈ 6.36 µM) | MIC90 (Neisseria gonorrhoeae; Neisseria gonorrhoeae, 30 isolates of N. gonorrhoeae, broth microdilution, read-out: MIC90): 2 µg/mL (≈ 6.36 µM) | MIC (Neisseria gonorrhoeae; Neisseria gonorrhoeae, 30 isolates of N. gonorrhoeae, broth microdilution, read-out: MIC Mode): 2 µg/mL (≈ 6.36 µM)
